Experimental data: ChEMBL document CHEMBL1134380, “Discovery and optimization of a novel series of thrombin receptor (par-1) antagonists: potent, selective peptide mimetics based on indole and indazole templates” (J Med Chem, 2001); call rule not given here

How the values were obtained:
[1] = Proliferation by RASMC proliferation assay at 0.8 nM alpha thrombin.; design: unit not given here
[2] = In vitro antagonist activity against U-46,619 induced gel-filtered Platelet (GFP) aggregation at 50 uM; NA=Inactive; format: functional
[3] = Calcium flux by RASMC Calcium mobilization assay at 2.0 nM alpha thrombin.; format: functional; design: unit not given here
[4] = molecular target: T1, Proteinase-activated receptor 1 (Homo sapiens, UniProt P25116); test: Binding affinity against Protease-activated receptor (PAR-1) using [3H]-s-(p-F-Phe)-homoarginine-L-homoarginine-KY-NH2, 10 nM (Kd= 15 nM)
T1 sequence (P25116 whole entry): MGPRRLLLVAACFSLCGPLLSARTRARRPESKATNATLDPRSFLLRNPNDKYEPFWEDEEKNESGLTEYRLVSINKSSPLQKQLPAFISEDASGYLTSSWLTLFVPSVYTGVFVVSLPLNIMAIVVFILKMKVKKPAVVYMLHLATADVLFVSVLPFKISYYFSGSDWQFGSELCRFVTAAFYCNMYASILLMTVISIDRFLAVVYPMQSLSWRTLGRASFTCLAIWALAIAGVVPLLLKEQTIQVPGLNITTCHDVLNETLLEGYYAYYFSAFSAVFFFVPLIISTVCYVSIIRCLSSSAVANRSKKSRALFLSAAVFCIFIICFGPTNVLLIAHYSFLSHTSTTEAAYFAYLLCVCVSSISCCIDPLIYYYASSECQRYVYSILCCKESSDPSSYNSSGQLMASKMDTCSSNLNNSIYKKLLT

[5] = In vitro antagonist activity against SFLLRN-NH2 induced gel-filtered platelet (GFP) aggregation at 2 uM; format: functional
[6] = Calcium flux by HMVEC Calcium mobilization assay at 2.0 nM alpha thrombin.; format: functional; design: unit not given here
[7] = In vitro antagonist activity against U-46,619 induced gel-filtered Platelet (GFP) aggregation at 0.3 uM; format: functional
[8] = In vitro antagonist activity against collagen induced gel-filtered platelet (GFP) aggregation at 3 ug/mL
[9] = in vitro antagonist activity against U-46,619 induced gel-filtered Platelet (GFP) aggregation at 0.3 uM; format: functional
[10] = molecular target: T1, Proteinase-activated receptor 1; test: Binding Affinity of ligand against Protease-activated Receptor (PAR-1) using [3H]-s-(p-F-Phe)-homoarginine-L-homoarginine-KY-NH2, 10 nM (Kd= 15 nM)

Row | SMILES | Proliferation [1] | IC50 [2] | Ca2+ flux [3] | IC50 [4] [nM] | IC50 [5] [nM] | Ca2+ flux [6] | IC50 [7] [nM] | IC50 [8] [nM] | IC50 [9] [nM] | IC50 [10] [nM]
1 | COc1ccc(C[C@H](NC(=O)Nc2ccc3c(CN4CCCC4)cn(Cc4ccc(F)cc4)c3c2)C(=O)N[C@@H](CCCN=C(N)N)C(=O)NCc2ccccc2)cc1 | > 30 | Not Active | 7.8 | 2200 | 270 | 0.54 | – | – | – | –
2 | COc1ccc(C[C@H](NC(=O)Nc2ccc3c(CN4CCCC4)cn(Cc4ccc(OC(F)(F)F)cc4)c3c2)C(=O)N[C@@H](CCCN=C(N)N)C(=O)NCc2ccccc2)cc1 | – | – | – | 2400 | 3200 | – | 25500 | 24200 | – | –
3 | COc1ccc(C[C@H](NC(=O)Nc2ccc3c(CNC4CCCC4)cn(Cc4ccc(F)cc4)c3c2)C(=O)N[C@@H](CCCN=C(N)N)C(=O)NCc2ccccc2)cc1 | – | – | – | 10700 | 2200 | – | 49100 | 41400 | – | –
4 | COc1ccc(C[C@H](NC(=O)Nc2ccc3c(CN4CCCC4)cn(Cc4c(Cl)cccc4Cl)c3c2)C(=O)N[C@@H](CCCNC(=N)N)C(=O)NCc2ccccc2)cc1 [RWJ-54003] | 7.3 | Not Active | 0.93 | 1300 | 300 | 0.33 | – | 46300 | – | –
5 | N=C(N)NCCC[C@H](NC(=O)[C@H](Cc1ccc(F)c(F)c1)NC(=O)Nc1ccc2c(CN3CCCC3)cn(Cc3c(Cl)cccc3Cl)c2c1)C(=O)NCc1ccncc1 | 6.5 | – | 0.21 | 40 | 360 | 0.17 | – | – | 13300 | –
6 | NCC[C@H](NC(=O)[C@H](Cc1ccc(F)c(F)c1)NC(=O)Nc1ccc2c(CN3CCCC3)nn(Cc3c(Cl)cccc3Cl)c2c1)C(=O)NCc1ccccc1 [RWJ-58259] | 2.3 | Not Active | 0.07 | – | 110 | – | – | – | – | 150
7 | N=C(N)NCCC[C@H](NC(=O)[C@H](Cc1ccc(F)c(F)c1)NC(=O)Nc1ccc2c(CN3CCCC3)cn(Cc3c(Cl)cccc3Cl)c2c1)C(=O)NCc1ccccc1 | 2.4 | Not Active | 0.13 | 820 | 180 | 0.09 | – | – | – | –
8 | N=C(N)NCCC[C@H](NC(=O)[C@H](Cc1ccccc1)NC(=O)Nc1ccc2c(CN3CCCC3)cn(Cc3ccc(F)cc3)c2c1)C(=O)NCc1ccccc1 | – | – | – | 700 | 300 | – | – | 12700 | – | –
